Results published in ChEMBL document CHEMBL4052698, “Design, synthesis and SAR of a novel series of heterocyclic phenylpropanoic acids as GPR120 agonists” (Bioorg Med Chem Lett, 2017).
Each block holds one molecule with its values, some of them ahead of it. The source made the active and inactive calls. No cut-off for these calls is given here.

Legend:
[1] = molecular target: Free fatty acid receptor 4 (Homo sapiens, UniProt Q5NUL3); assay: Agonist activity at human GPR120 short splice variant expressed in HEK293 cells assessed as increase in intracellular calcium flux by Fluo-4 NW dye based FLIPR assay; assay type: functional, cell-based
[2] = molecular target: T1, Free fatty acid receptor 4 (Homo sapiens, UniProt Q5NUL3); assay: Agonist activity at human GPR120 expressed in CHO-K1 cells assessed as […] by DiscoveRx PathHunter beta-arrestin assay; assay type: functional, cell-based
T1 sequence (Q5NUL3 whole entry): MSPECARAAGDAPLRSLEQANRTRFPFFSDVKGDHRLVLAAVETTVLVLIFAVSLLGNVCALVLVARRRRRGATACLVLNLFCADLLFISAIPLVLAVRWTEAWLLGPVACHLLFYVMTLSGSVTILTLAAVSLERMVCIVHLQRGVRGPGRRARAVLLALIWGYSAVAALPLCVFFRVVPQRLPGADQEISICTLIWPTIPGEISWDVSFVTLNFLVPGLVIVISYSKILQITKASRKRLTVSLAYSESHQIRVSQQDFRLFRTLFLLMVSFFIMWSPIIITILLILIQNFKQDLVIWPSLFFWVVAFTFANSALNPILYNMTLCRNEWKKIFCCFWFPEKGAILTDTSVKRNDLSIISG

[3] = Stability in human liver microsomes assessed as parent compound remaining after 10 mins; assay type: ADME, microsome; details: read-out: Stability
[4] = Stability in mouse liver microsomes assessed as parent compound remaining after 10 mins; assay type: ADME, microsome; details: read-out: Stability
[5] = Stability in rat liver microsomes assessed as parent compound remaining after 10 mins; assay type: ADME, microsome; details: read-out: Stability
[6] = Protein binding in mouse plasma; assay type: ADME, cell-free; details: read-out: PPB (converted)
[7] = Cmax in C57/black 6J mouse at 20 mg/kg dosed as oral gavage by LC-MS/MS method; assay type: ADME, organism-based; set-up: dose 20 mg/kg, route oral; details: in vivo
[8] = Protein binding in human plasma; assay type: ADME, cell-free; details: read-out: PPB (converted)
Mus musculus [9] = assay: Antidiabetic activity in C57bl/6J mouse assessed as reduction in blood glucose delta AUC level at 10 mg/kg, po dosed 30 mins before glucose challenge and measured 90 mins post glucose injection by intraperitoneal glucose tolerance test; assay type: functional; set-up: scale not given: the % may be the effect or the level left
[10] = Protein binding in rat plasma; assay type: ADME, cell-free; details: read-out: PPB (converted)
Mus musculus [11] = assay: Antidiabetic activity in C57bl/6J mouse assessed as reduction in blood glucose level at 1 to 10 mg/kg, po dosed 30 mins before glucose challenge by intraperitoneal glucose tolerance test; assay type: functional, organism-based
Mus musculus [12] = assay: Antidiabetic activity in C57bl/6J mouse assessed as reduction in blood glucose delta AUC level at 3 mg/kg, po dosed 30 mins before glucose challenge and measured 90 mins post glucose injection by intraperitoneal glucose tolerance test; assay type: functional; set-up: scale not given: the % may be the effect or the level left
[13] = Half life in C57/black 6J mouse at 20 mg/kg dosed as oral gavage by LC-MS/MS method; assay type: ADME, organism-based; details: in vivo
[14] = Clearance in C57/black 6J mouse at 5 mg/kg, iv by LC-MS/MS method; assay type: ADME, organism-based; details: in vivo
Mus musculus [15] = assay: Antidiabetic activity in C57bl/6J mouse assessed as reduction in blood glucose delta AUC level at 1 to 10 mg/kg, po dosed 30 mins before glucose challenge by intraperitoneal glucose tolerance test; assay type: functional, organism-based
[16] = (§1) Oral bioavailability in C57/black 6J mouse at 20 mg/kg by LC-MS/MS method; assay type: ADME, organism-based; details: C57/black 6J, in vivo
Mus musculus [17] = assay: Antidiabetic activity in C57bl/6J mouse assessed as reduction in blood glucose delta AUC level at 1 mg/kg, po dosed 30 mins before glucose challenge and measured 90 mins post glucose injection by intraperitoneal glucose tolerance test; assay type: functional; set-up: scale not given: the % may be the effect or the level left
[18] = Volume of distribution at steady state in C57/black 6J mouse at 5 mg/kg, iv by LC-MS/MS method; assay type: ADME, organism-based; details: in vivo, read-out: Vdss
[19] = AUClast in C57/black 6J mouse at 20 mg/kg dosed as oral gavage by LC-MS/MS method; assay type: ADME, organism-based; set-up: dose 20 mg/kg, route oral, time 0 - last; details: in vivo
Mus musculus [20] = assay: Antidiabetic activity in C57bl/6J mouse assessed as reduction in blood glucose level at 10 mg/kg, po dosed 30 mins before glucose challenge by intraperitoneal glucose tolerance test; assay type: functional, organism-based
Mus musculus [21] = assay: as §1; assay type: ADME, organism-based; details: in vivo

EC50 [1]: 1070 nM | EC50 [2]: 1090 nM
SMILES: Cc1c(CCC(=O)O)ccc(OCc2c(-c3ccc(Cl)cc3)noc2C2CC2)c1C

EC50 [1]: 1440 nM | EC50 [2]: 2760 nM
SMILES: Cc1c(CCC(=O)O)ccc(OCc2conc2-c2ccc(Cl)cc2)c1C

EC50 [1]: 520 nM | EC50 [2]: 1150 nM
SMILES: CCc1ccc(-n2nccc2COc2ccc(CCC(=O)O)c(C)c2C)cc1

EC50 [1]: 170 nM
SMILES: O=C(O)CCc1cc(F)c(OCc2c(-c3ccc(C4CC4)cc3)noc2C(F)(F)F)c(F)c1

EC50 [1]: 1450 nM
SMILES: O=C(O)CCc1ccc(OCc2c(-c3ccc(Cl)cc3)noc2C(F)(F)F)cc1C(F)(F)F

EC50 [1]: > 5000 nM
SMILES: Cc1c(CCC(=O)O)ccc(OCc2nccn2-c2ccc(Cl)cc2)c1C

remaining at 10 min [3]: 80.9% | EC50 [1]: 680 nM | remaining at 10 min [4]: 91.2% | EC50 [2]: 160 nM | remaining at 10 min [5]: 68%
SMILES: Cc1c(CCC(=O)O)ccc(OCc2c(-c3ccc(Cl)cc3)noc2C(F)(F)F)c1C

EC50 [1]: 350 nM | EC50 [2]: 810 nM
SMILES: Cc1noc(-c2ccc(Cl)cc2)c1COc1ccc(CCC(=O)O)c(C)c1C

remaining at 10 min [3]: 66.3% | EC50 [1]: 740 nM | remaining at 10 min [4]: 50.2% | EC50 [2]: 400 nM | remaining at 10 min [5]: 45.6%
SMILES: CCc1onc(-c2ccc(Cl)cc2)c1COc1ccc(CCC(=O)O)c(C)c1C

remaining at 10 min [3]: 108% | EC50 [1]: 71 nM | remaining at 10 min [4]: 99.3% | EC50 [2]: 290 nM | remaining at 10 min [5]: 92%
SMILES: O=C(O)CCc1cc(F)c(OCc2c(-c3ccc(F)cc3Cl)noc2C(F)(F)F)c(F)c1

EC50 [1]: 57 nM | fraction unbound [6]: 0.0008 | Cmax [7]: 7670 ng/mL | fraction unbound [8]: 0.0006 | fraction unbound [10]: 0.0011 | EC50 [2]: 60 nM | half-life [13]: 1.03 h | clearance [14]: 27.1 mL/min/kg | bioavailability [16]: 78.7% | Vd [18]: 0.898 L/kg | AUC(0-t) [19]: 9660 ng·h/mL
SMILES: CCc1ccc(-c2noc(C(F)(F)F)c2COc2c(F)cc(CCC(=O)O)cc2F)cc1
Activity (Mus musculus [9]): -54% | Activity (Mus musculus [11]): Dose-dependent effect | Activity (Mus musculus [12]): -35% | Activity (Mus musculus [15]): Dose-dependent effect | Activity (Mus musculus [17]): 30%

EC50 [1]: 340 nM | EC50 [2]: 190 nM
SMILES: O=C(O)CCc1cc(F)c(OCc2c(-c3ccc(C(F)(F)F)cc3)noc2C(F)(F)F)c(F)c1

EC50 [1]: 81 nM
SMILES: Cc1c(CCC(=O)O)ccc(OCc2scnc2-c2ccc(Cl)cc2)c1C

EC50 [1]: 217 nM
SMILES: Cc1c(CCC(=O)O)ccc(OCc2csnc2-c2ccc(Cl)cc2)c1C

EC50 [1]: 220 nM
SMILES: Cc1c(CCC(=O)O)ccc(OCc2ccccc2-c2ccc(Cl)cc2)c1C

remaining at 10 min [3]: 113% | EC50 [1]: 71 nM | fraction unbound [6]: 0.0014 | Cmax [7]: 12700 ng/mL | fraction unbound [8]: 0.0007 | remaining at 10 min [4]: 105% | fraction unbound [10]: 0.0019 | EC50 [2]: 160 nM | remaining at 10 min [5]: 98.9% | half-life [13]: 2.07 h | clearance [14]: 7.18 mL/min/kg | bioavailability [16]: 93% | Vd [18]: 1.26 L/kg | AUC(0-t) [19]: 43200 ng·h/mL
SMILES: O=C(O)CCc1cc(F)c(OCc2c(-c3ccc(Cl)cc3)noc2C(F)(F)F)c(F)c1
Activity (Mus musculus [9]): -56% | Activity (Mus musculus [20]): Active | Activity (Mus musculus [12]): 23% | Activity (Mus musculus [17]): 20%

EC50 [1]: 150 nM
SMILES: O=C(O)CCc1ccc(OCc2c(-c3ccccc3)noc2C(F)(F)F)cc1

EC50 [1]: > 5000 nM
SMILES: Cc1c(CCC(=O)O)ccc(OCc2cnnn2-c2ccc(Cl)cc2)c1C

EC50 [1]: 142 nM
SMILES: CCc1ccc(-c2cscc2COc2ccc(CCC(=O)O)c(C)c2C)cc1

EC50 [1]: 270 nM | EC50 [2]: 760 nM
SMILES: Cc1onc(-c2ccc(Cl)cc2)c1COc1ccc(CCC(=O)O)c(C)c1C

remaining at 10 min [3]: 64.4% | EC50 [1]: 120 nM | remaining at 10 min [4]: 84.5% | EC50 [2]: 180 nM | remaining at 10 min [5]: 37.9%
SMILES: Cc1ccc(-c2noc(C(F)(F)F)c2COc2c(F)cc(CCC(=O)O)cc2F)cc1

remaining at 10 min [3]: 103% | EC50 [1]: 150 nM | remaining at 10 min [4]: 119% | EC50 [2]: 230 nM | remaining at 10 min [5]: 66.2%
SMILES: O=C(O)CCc1cc(F)c(OCc2c(-c3ccc(F)cc3)noc2C(F)(F)F)c(F)c1

EC50 [1]: 100 nM | EC50 [2]: 750 nM
SMILES: CCc1ccc(-n2cccc2COc2ccc(CCC(=O)O)c(C)c2C)cc1

EC50 [1]: 145 nM | EC50 [2]: 930 nM
SMILES: Cc1c(CCC(=O)O)ccc(OCc2cccn2-c2ccc(Cl)cc2)c1C

EC50 [1]: 410 nM
SMILES: Cc1cc(OCc2c(-c3ccc(Cl)cc3)noc2C(F)(F)F)c(F)cc1CCC(=O)O

EC50 [1]: 610 nM | EC50 [2]: 2030 nM
SMILES: Cc1c(CCC(=O)O)ccc(OCc2ccnn2-c2ccc(Cl)cc2)c1C

EC50 [1]: 1130 nM
SMILES: COc1ccc(-c2noc(C(F)(F)F)c2COc2c(F)cc(CCC(=O)O)cc2F)cc1

remaining at 10 min [3]: 95.6% | EC50 [1]: 170 nM | fraction unbound [6]: 0.0047 | fraction unbound [8]: 0.0017 | remaining at 10 min [4]: 93% | fraction unbound [10]: 0.0122 | EC50 [2]: 69 nM | remaining at 10 min [5]: 110% | half-life [13]: 2.58 h | F (Mus musculus [21]): 49.5% | Vd [18]: 0.336 L/kg
SMILES: O=C(O)CCc1cc(F)c(OCc2c(-c3ccccc3)noc2C(F)(F)F)c(F)c1

EC50 [1]: > 5000 nM
SMILES: Cc1c(CCC(=O)O)ccc(OCc2nnnn2-c2ccc(Cl)cc2)c1C

remaining at 10 min [3]: 105% | EC50 [1]: 120 nM | remaining at 10 min [4]: 94.1% | remaining at 10 min [5]: 72.3%
SMILES: O=C(O)CCc1cc(F)c(OCc2c(-c3ccc(Br)cc3)noc2C(F)(F)F)c(F)c1

EC50 [1]: 2830 nM
SMILES: Cc1c(CCC(=O)O)ccc(OCc2c(-c3ccc(Cl)cc3)noc2-c2ccccc2)c1C

EC50 [1]: 1750 nM
SMILES: Cc1c(CCC(=O)O)ccc(OCc2ncoc2-c2ccc(Cl)cc2)c1C

remaining at 10 min [3]: 93% | EC50 [1]: 110 nM | remaining at 10 min [4]: 86.3% | EC50 [2]: 160 nM | remaining at 10 min [5]: 54.3%
SMILES: Cc1ccc(-c2noc(C(F)(F)F)c2COc2c(F)cc(CC(C)C(=O)O)cc2F)cc1 (centres undefined)

remaining at 10 min [3]: 99.6% | EC50 [1]: 670 nM | remaining at 10 min [4]: 109% | EC50 [2]: 140 nM | remaining at 10 min [5]: 106%
SMILES: O=C(O)CCc1ccc(OCc2c(-c3ccc(Cl)cc3)noc2C(F)(F)F)c(F)c1F

remaining at 10 min [3]: 79.3% | EC50 [1]: 1060 nM | remaining at 10 min [4]: 48.3% | EC50 [2]: 130 nM | remaining at 10 min [5]: 38.4%
SMILES: CCCc1onc(-c2ccc(Cl)cc2)c1COc1ccc(CCC(=O)O)c(C)c1C

EC50 [1]: 190 nM
SMILES: CCc1ccc(-c2sncc2COc2ccc(CCC(=O)O)c(C)c2C)cc1

EC50 [1]: 160 nM | EC50 [2]: 900 nM
SMILES: CCc1ccc(-c2ccsc2COc2ccc(CCC(=O)O)c(C)c2C)cc1
